Source: PubChem BioAssay AID328 (DTP/NCI, 2004)
Inconclusive results and toxic doses are left out. How the source made its calls: active means survival T/C of 150% or more; inactive means T/C below 125% in these data.

Test system: BDF1 mice, P388 leukemia ip, median survival T/C
Assay: NCI In Vivo Anticancer Drug Screen. Data for tumor model P388 Leukemia (intraperitoneal) in B6D2F1 (BDF1) mice
Conditions: endpoint: median survival time, higher = longer survival
In short: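 T/C = treated-group survival ÷ vehicle-control survival; tumour transplanted into mice before dosing.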

[1] = dose: 50.0 mg/kg/injection, schedule: Q04DX003 (ip), vehicle: saline
[2] = dose: 100.0 mg/kg/injection, schedule: Q04DX003 (ip), vehicle: saline
[3] = dose: 25.0 mg/kg/injection, schedule: Q01DX009 (ip), vehicle: saline with Tween-80
[4] = dose: 50.0 mg/kg/injection, schedule: Q01DX009 (ip), vehicle: saline with Tween-80
[5] = dose: 100.0 mg/kg/injection, schedule: Q01DX009 (ip), vehicle: saline with Tween-80
[6] = dose: 12.5 mg/kg/injection, schedule: Q01DX009 (ip), vehicle: saline
[7] = dose: 200.0 mg/kg/injection, schedule: Q01DX009 (ip), vehicle: saline with Tween-80

Measured: T/C

CCc1ccc(C(C)(C)C)cc1
inactive: dose: 50.0 mg/kg/injection, schedule: Q04DX003 (ip), vehicle: saline with Tween-80 109 % of control | dose: 100.0 mg/kg/injection, schedule: Q04DX003 (ip), vehicle: saline with Tween-80 104 % of control | dose: 132.0 mg/kg/injection, schedule: Q01DX009 (ip), vehicle: saline with Tween-80 118 % of control | dose: 200.0 mg/kg/injection, schedule: Q04DX003 (ip), vehicle: saline with Tween-80 100 % of control

CC1CN1P(=S)(N1CC1C)N1CC1C (stereo not given)
inactive: dose: 1.25 mg/kg/injection, schedule: Q01DX010 (ip), vehicle: saline 104 % of control | dose: 2.5 mg/kg/injection, schedule: Q01DX010 (ip), vehicle: saline 104 % of control | dose: 5.0 mg/kg/injection, schedule: Q01DX010 (ip), vehicle: saline 104 % of control | dose: 10.0 mg/kg/injection, schedule: Q01DX010 (ip), vehicle: saline 104 % of control

COc1cc(N=Nc2ccc(O)c3ncccc23)c(OC)cc1N=Nc1ccc([N+](=O)[O-])cc1
inactive: dose: 50.0 mg/kg/injection, schedule: Q01DX005 (ip), vehicle: saline with Tween-80 101 % of control | dose: 100.0 mg/kg/injection, schedule: Q01DX005 (ip), vehicle: saline with Tween-80 111 % of control

CC(=O)Nc1ccc(S(=O)(=O)F)cc1[N+](=O)[O-]
inactive: dose: 25.0 mg/kg/injection, schedule: Q04DX003 (ip), vehicle: saline 100 % of control | [1] 100 % of control | [2] 115 % of control

O=[N+]([O-])c1ccc([I+]c2ccccc2)cc1
active: dose: 5.5 mg/kg/injection, schedule: Q01DX009 (ip), vehicle: saline with Tween-80 150 % of control | dose: 8.25 mg/kg/injection, schedule: Q01DX009 (ip), vehicle: saline with Tween-80 154 % of control | dose: 16.5 mg/kg/injection, schedule: Q04DX003 (ip), vehicle: saline 150 % of control | [3] 154 % of control | [4] 150 % of control | [5] 158 % of control | dose: 100.0 mg/kg/injection, schedule: Q04DX003 (ip), vehicle: saline sonified 150 % of control
inactive: dose: 1.5 mg/kg/injection, schedule: Q04DX003 (ip), vehicle: saline sonified 100 % of control | dose: 12.0 mg/kg/injection, schedule: Q04DX003 (ip), vehicle: saline sonified 118 % of control

c1ccc(C(c2ccccc2)[n+]2ccccc2)cc1
inactive: dose: 3.13 mg/kg/injection, schedule: Q01DX009 (ip), vehicle: saline 91 % of control | [6] 114 % of control

Cn1c(N)c(N=Nc2ccccc2Cl)c(=O)n(C)c1=O
inactive: [4] 98 % of control | [5] 99 % of control | [7] 100 % of control

NOCc1cccc(CON)c1
inactive: [6] 100 % of control | dose: 25.0 mg/kg/injection, schedule: Q01DX009 (ip), vehicle: saline 87 % of control | dose: 50.0 mg/kg/injection, schedule: Q01DX009 (ip), vehicle: saline 91 % of control | [1] 91 % of control | [2] 91 % of control | dose: 200.0 mg/kg/injection, schedule: Q04DX003 (ip), vehicle: saline 91 % of control

CC(=O)OCc1ccc[n+](C2=C([O-])C(=O)C([n+]3cccc(COC(C)=O)c3)=C([O-])C2=O)c1
inactive: [4] 104 % of control | [5] 98 % of control | [7] 102 % of control

COc1ccc(C=Nc2cccc3ccccc23)cc1
inactive: dose: 100.0 mg/kg/injection, schedule: Q01DX001 (ip), vehicle: saline sonified 100 % of control | dose: 200.0 mg/kg/injection, schedule: Q01DX001 (ip), vehicle: saline sonified 100 % of control | dose: 400.0 mg/kg/injection, schedule: Q01DX001 (ip), vehicle: saline sonified 104 % of control

O=S(=O)(F)c1ccc(N=C=S)cc1
inactive: dose: 6.25 mg/kg/injection, schedule: Q01DX009 (ip), vehicle: saline with Tween-80 120 % of control | dose: 12.5 mg/kg/injection, schedule: Q01DX009 (ip), vehicle: saline with Tween-80 116 % of control | [3] 112 % of control

CS(=O)(=O)c1nnc(-c2ccccc2)s1
inactive: dose: 100.0 mg/kg/injection, schedule: Q01DX009 (ip), vehicle: Klucel (hydroxypropylcellulose) (HPC) 94 % of control | dose: 200.0 mg/kg/injection, schedule: Q01DX009 (ip), vehicle: Klucel (hydroxypropylcellulose) (HPC) 100 % of control | dose: 400.0 mg/kg/injection, schedule: Q01DX009 (ip), vehicle: Klucel (hydroxypropylcellulose) (HPC) 103 % of control
